Reference: article PMC6934184, “Selective DNA-PKcs inhibition extends the therapeutic index of localized radiotherapy and chemotherapy” (The Journal of Clinical Investigation, 2019)

Molecular target: T1, DMPK (Homo sapiens, UniProt Q09013)
T1 construct: purchased Thermo Fisher Scientific (Life Technologies) SelectScreen
Experiment: SelectScreen LanthaScreen
Type: binding
Settings: read-out: % displacement
Summary of the method: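 NU5455 was profiled across the SelectScreen Broad panel of kinase activity and binding assays. Z'LYTE reactions such as CSF1R ran at apparent Km ATP, while the Adapta CAMK1 assay used ATP listed as 10. Values are given as percent.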

T1 sequence (Q09013 whole entry): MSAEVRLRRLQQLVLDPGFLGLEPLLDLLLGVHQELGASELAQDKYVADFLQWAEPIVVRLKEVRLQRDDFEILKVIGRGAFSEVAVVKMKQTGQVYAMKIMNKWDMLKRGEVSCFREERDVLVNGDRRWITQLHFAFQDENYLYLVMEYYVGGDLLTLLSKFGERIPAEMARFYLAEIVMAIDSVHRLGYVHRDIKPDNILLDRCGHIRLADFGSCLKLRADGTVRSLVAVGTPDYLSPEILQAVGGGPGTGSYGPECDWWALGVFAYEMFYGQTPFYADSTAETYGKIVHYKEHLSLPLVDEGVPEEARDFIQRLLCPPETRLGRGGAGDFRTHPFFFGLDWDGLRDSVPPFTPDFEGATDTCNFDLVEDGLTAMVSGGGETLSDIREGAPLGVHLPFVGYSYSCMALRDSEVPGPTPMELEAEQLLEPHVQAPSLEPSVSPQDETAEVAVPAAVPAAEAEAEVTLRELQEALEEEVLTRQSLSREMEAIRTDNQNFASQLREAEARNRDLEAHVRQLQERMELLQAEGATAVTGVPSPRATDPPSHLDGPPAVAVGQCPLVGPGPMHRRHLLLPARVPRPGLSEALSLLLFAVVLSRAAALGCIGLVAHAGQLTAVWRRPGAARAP

CN(C(=O)CN1CCOCC1)c1ccc2sc3c(-c4cccc5c(=O)cc(N6CC7CCC(C6)O7)oc45)cccc3c2c1 [NU5455]
inhibition at 1 µM: -1.5%
